Activity calls are given as the source filed them. No rule for the calls is given here.
Test system: CCRIS mutagenicity, Ames/micronucleus/aberration tests
Assay: CCRIS mutagenicity studies
[1] = Test System: AMES SALMONELLA TYPHIMURIUM, Strain/Indicator: TA98, Metabolic Activation: NONE, Method: PREINCUBATION
[2] = Test System: AMES SALMONELLA TYPHIMURIUM, Strain/Indicator: TA100, Metabolic Activation: NONE, Method: PREINCUBATION

SMILES: COP(=O)(OC)C(O)C(Cl)(Cl)Cl (centres undefined)
- mutagenic call (End Point: IN VIVO MICRONUCLEUS, Test System: PREIMPLANTATION EMBRYOS, Species: MOUSE, Strain/Sex: ICR FEMALE/EMBRYO, Route: MATERNAL SINGLE IP DOSE, EMBRYO HARVEST ON G.D 3): active; positive
- mutagenic call (End Point: In vivo micronucleus, Test System: Micronucleated, binucleated and multinucleated hepatocytes, Species: Mouse, Strain/Sex: ddY/Male, Route: Intravenous): active; positive for binucleated and multinucleated cells when agent administered after
- mutagenic call (Test System: AMES SALMONELLA TYPHIMURIUM, Strain/Indicator: TA97, Metabolic Activation: NONE, Method: SPOT TEST): inactive; negative
- mutagenic call (Test System: AMES SALMONELLA TYPHIMURIUM, Strain/Indicator: TA97, Metabolic Activation: NONE, Method: STANDARD PLATE): inactive; negative
- mutagenic call (Test System: AMES SALMONELLA TYPHIMURIUM, Strain/Indicator: TA97, Metabolic Activation: RAT, LIVER, S-9, NAPHTHOFLAVONE AND PHENOBARBITAL, Method: STANDARD PLATE): inactive; negative
- mutagenic call (Test System: AMES SALMONELLA TYPHIMURIUM, Strain/Indicator: TA97, Metabolic Activation: RAT, LIVER, S-9, PHENOBARBITAL AND NAPHTHOFLAVONE, Method: SPOT TEST): inactive; negative
- mutagenic call (Test System: AMES SALMONELLA TYPHIMURIUM, Strain/Indicator: TA98, Metabolic Activation: HAMSTER, LIVER, S-9, AROCLOR 1254 (10%), Method: PREINCUBATION): inactive; negative
- mutagenic call [1]: inactive; negative
- mutagenic call (Test System: AMES SALMONELLA TYPHIMURIUM, Strain/Indicator: TA98, Metabolic Activation: NONE, Method: SPOT TEST): inactive; negative
- mutagenic call (Test System: AMES SALMONELLA TYPHIMURIUM, Strain/Indicator: TA98, Metabolic Activation: NONE, Method: STANDARD PLATE): inactive; negative
- mutagenic call (Test System: AMES SALMONELLA TYPHIMURIUM, Strain/Indicator: TA98, Metabolic Activation: RAT, LIVER, S-9, AROCLOR 1254 (10%), Method: PREINCUBATION): inactive; negative
- mutagenic call (Test System: AMES SALMONELLA TYPHIMURIUM, Strain/Indicator: TA98, Metabolic Activation: RAT, LIVER, S-9, NAPHTHOFLAVONE AND PHENOBARBITAL, Method: STANDARD PLATE): inactive; negative
- mutagenic call (Test System: AMES SALMONELLA TYPHIMURIUM, Strain/Indicator: TA98, Metabolic Activation: RAT, LIVER, S-9, PHENOBARBITAL AND NAPHTHOFLAVONE, Method: SPOT TEST): inactive; negative
- mutagenic call (Test System: AMES SALMONELLA TYPHIMURIUM, Strain/Indicator: TA100, Metabolic Activation: HAMSTER, LIVER, S-9, AROCLOR 1254 (10%), Method: PREINCUBATION): inactive; negative
- mutagenic call [2]: inactive; negative
- mutagenic call (Test System: AMES SALMONELLA TYPHIMURIUM, Strain/Indicator: TA100, Metabolic Activation: NONE, Method: SPOT TEST): inactive; negative
- mutagenic call (Test System: AMES SALMONELLA TYPHIMURIUM, Strain/Indicator: TA100, Metabolic Activation: NONE, Method: STANDARD PLATE): inactive; negative
- mutagenic call (Test System: AMES SALMONELLA TYPHIMURIUM, Strain/Indicator: TA100, Metabolic Activation: RAT, LIVER, S-9, AROCLOR 1254 (10%), Method: PREINCUBATION): inactive; negative
- mutagenic call (Test System: AMES SALMONELLA TYPHIMURIUM, Strain/Indicator: TA100, Metabolic Activation: RAT, LIVER, S-9, NAPHTHOFLAVONE AND PHENOBARBITAL, Method: FLUCTUATION TEST): inactive; negative
- mutagenic call (Test System: AMES SALMONELLA TYPHIMURIUM, Strain/Indicator: TA100, Metabolic Activation: RAT, LIVER, S-9, NAPHTHOFLAVONE AND PHENOBARBITAL, Method: PREINCUBATION): active; positive
- mutagenic call (Test System: AMES SALMONELLA TYPHIMURIUM, Strain/Indicator: TA100, Metabolic Activation: RAT, LIVER, S-9, NAPHTHOFLAVONE AND PHENOBARBITAL, Method: STANDARD PLATE): inactive; negative
- mutagenic call (Test System: AMES SALMONELLA TYPHIMURIUM, Strain/Indicator: TA100, Metabolic Activation: RAT, LIVER, S-9, PHENOBARBITAL AND NAPHTHOFLAVONE, Method: SPOT TEST): inactive; negative
- mutagenic call (Test System: AMES SALMONELLA TYPHIMURIUM, Strain/Indicator: TA100, Metabolic Activation: S-9 MIX, Method: STANDARD PLATE): active; positive
- mutagenic call (Test System: AMES SALMONELLA TYPHIMURIUM, Strain/Indicator: TA104, Metabolic Activation: NONE, Method: PREINCUBATION): active; positive
- mutagenic call (Test System: AMES SALMONELLA TYPHIMURIUM, Strain/Indicator: TA104, Metabolic Activation: NONE, Method: STANDARD PLATE): inactive; negative
- mutagenic call (Test System: AMES SALMONELLA TYPHIMURIUM, Strain/Indicator: TA104, Metabolic Activation: RAT, LIVER, S-9, NAPHTHOFLAVONE AND PHENOBARBITAL, Method: PREINCUBATION): active; positive
- mutagenic call (Test System: AMES SALMONELLA TYPHIMURIUM, Strain/Indicator: TA104, Metabolic Activation: RAT, LIVER, S-9, NAPHTHOFLAVONE AND PHENOBARBITAL, Method: STANDARD PLATE): inactive; negative
- mutagenic call (Test System: AMES SALMONELLA TYPHIMURIUM, Strain/Indicator: TA1535, Metabolic Activation: HAMSTER, LIVER, S-9, AROCLOR 1254 (10%), Method: PREINCUBATION): inactive; negative
- mutagenic call (Test System: AMES SALMONELLA TYPHIMURIUM, Strain/Indicator: TA1535, Metabolic Activation: NONE, Method: PREINCUBATION): inactive; negative
- mutagenic call (Test System: AMES SALMONELLA TYPHIMURIUM, Strain/Indicator: TA1535, Metabolic Activation: NONE, Method: SPOT TEST): inactive; negative
- mutagenic call (Test System: AMES SALMONELLA TYPHIMURIUM, Strain/Indicator: TA1535, Metabolic Activation: NONE, Method: STANDARD PLATE): inactive; negative
- mutagenic call (Test System: AMES SALMONELLA TYPHIMURIUM, Strain/Indicator: TA1535, Metabolic Activation: RAT, LIVER, S-9, AROCLOR 1254 (10%), Method: PREINCUBATION): inactive; negative
- mutagenic call (Test System: AMES SALMONELLA TYPHIMURIUM, Strain/Indicator: TA1535, Metabolic Activation: RAT, LIVER, S-9, NAPHTHOFLAVONE AND PHENOBARBITAL, Method: PREINCUBATION): inactive; negative
- mutagenic call (Test System: AMES SALMONELLA TYPHIMURIUM, Strain/Indicator: TA1535, Metabolic Activation: RAT, LIVER, S-9, NAPHTHOFLAVONE AND PHENOBARBITAL, Method: STANDARD PLATE): inactive; negative
- mutagenic call (Test System: AMES SALMONELLA TYPHIMURIUM, Strain/Indicator: TA1535, Metabolic Activation: RAT, LIVER, S-9, PHENOBARBITAL AND NAPHTHOFLAVONE, Method: SPOT TEST): inactive; negative
- mutagenic call (Test System: AMES SALMONELLA TYPHIMURIUM, Strain/Indicator: TA1537, Metabolic Activation: HAMSTER, LIVER, S-9, AROCLOR 1254 (10%), Method: PREINCUBATION): inactive; negative
- mutagenic call (Test System: AMES SALMONELLA TYPHIMURIUM, Strain/Indicator: TA1537, Metabolic Activation: NONE, Method: PREINCUBATION): inactive; negative
- mutagenic call (Test System: AMES SALMONELLA TYPHIMURIUM, Strain/Indicator: TA1537, Metabolic Activation: RAT, LIVER, S-9, AROCLOR 1254 (10%), Method: PREINCUBATION): inactive; negative
- mutagenic call (Test System: CHINESE HAMSTER V-79, Strain/Indicator: V-79/OUABAIN, Metabolic Activation: NONE): inactive; negative
- mutagenic call (Test System: E. COLI, Strain/Indicator: WP2, Metabolic Activation: NONE, Method: STANDARD PLATE): active; positive
- mutagenic call (Test System: E. COLI, Strain/Indicator: WP2, Metabolic Activation: RAT, LIVER, S-9, AROCLOR 1254, Method: STANDARD PLATE): active; positive
- mutagenic call (Test System: E. COLI, Strain/Indicator: WP2 UVRA, Metabolic Activation: NONE, Method: STANDARD PLATE): active; positive
- mutagenic call (Test System: E. COLI, Strain/Indicator: WP2 UVRA, Metabolic Activation: RAT, LIVER, S-9, AROCLOR 1254, Method: STANDARD PLATE): active; positive
- mutagenic call (Test System: UDS HUMAN CELLS, Strain/Indicator: EUE LINE/THY INCORP, Metabolic Activation: NONE, Method: AUTORADIOGRAPHY): active; positive
- mutagenic call (Test System: UDS HUMAN FIBROBLASTS, Strain/Indicator: THY INCORP (NON-S-PHASE), Metabolic Activation: NONE, Method: LIQUID SCINTILLATION COUNTING): active; positive

SMILES: C/C(O)=C(\N=O)C(=O)N(c1ccccc1)N(C)N=O
- mutagenic call [1]: active; positive
- mutagenic call (Test System: AMES SALMONELLA TYPHIMURIUM, Strain/Indicator: TA98, Method: PREINCUBATION): active; positive
- mutagenic call [2]: active; positive
- mutagenic call (Test System: AMES SALMONELLA TYPHIMURIUM, Strain/Indicator: TA100, Method: PREINCUBATION): active; positive

— PubChem BioAssay AID1259407 (Chemical Carcinogenesis Research Information System (CCRIS), 2018)
